Measurements from patent US12642791B2, “Inhibitors of lysyl oxidases” (UNIVERSITY OF SOUTH CAROLINA, priority 2021, dated 2026).
Where two headings read alike, the source gives them in different places.

How the values were obtained:
[1] = system: cellular lysyl oxidase (LOX) activity, MDA-MB-231 cells; assay: Cell-based lysyl oxidase activity assay (Abcam kit); set-up: species or system human
Excerpt: As the available LOX inhibitors are either not very potent or have toxicity, the inventors developed a robust screening pipeline shown in FIG. 28 to identify potent and safe LOX-specific and pan-LOX inhibitors. Briefly, a high-throughput cell-based LOX activity (Abcam) screen (HTS) was done for more than 5,000 drug-like compounds from the EXPRESS-Pick diversified library (4,480 molecules, ChemBridge) and Tocriscreen library of bioactive compounds (1,280 compounds, Tocris), each at a single concentration of 10 μM. […] The toxic molecules were counter screened with cell cytotoxicity assay and filtered out.
FIGS. 34. […] IC50 for cellular lysyl oxidase activity upon treatment of MDA-MB-231 cells with different LOX inhibitors. uM=microM.
(§1) For cell-based lysyl oxidase activity, fluorometric Lysly Oxidase Activity Assay Kit (Abcam, USA) was used according to manufacturer's instructions. Briefly, after the treatment, 50 μl of supernatant from each well was incubated with reagent mix and fluorescence measured in multimode-reader at Ex/Em=540/590 nm wavelength.

[2] = target: T1, recombinant LOX (Homo sapiens, UniProt P28300); assay: Lysyl oxidase activity assay with recombinant LOX protein; format: biochemical; details: for inhibition of recombinant LOX: 10 μM compound; for selectivity LOX versus LOXL2 / LOX family: recombinant proteins
T1 construct: purchased Novus, USA
T1 sequence (P28300 169-417): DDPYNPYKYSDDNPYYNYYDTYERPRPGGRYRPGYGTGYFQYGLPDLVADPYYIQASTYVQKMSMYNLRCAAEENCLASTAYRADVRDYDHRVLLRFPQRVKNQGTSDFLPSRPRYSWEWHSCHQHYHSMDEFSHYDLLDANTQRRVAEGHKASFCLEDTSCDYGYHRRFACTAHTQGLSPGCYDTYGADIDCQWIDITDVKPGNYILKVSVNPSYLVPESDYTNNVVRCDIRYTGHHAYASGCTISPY
Description: For in vitro lysyl oxidase activity (for recombinant proteins), Lysyl Oxidase Activity kit (Biovision, USA) was used according to manufacturer's instructions. Briefly, 1 μg of LOX (Novus, USA), 0.2 μg of LOXL1 (Abcam, USA) and 0.1 μg of LOXL2 (Abcam, USA) were incubated with the reagent mix in the presence of inhibitors or vehicle. Lysyl oxidase activity of the wells was measured in multimode reader (every 30 sec, total 2.5 hours) in […] mode.

[3] = system: MDA-MB-231 cells; assay: Migration assay (RTCA CIM plate); format: cell-based, human; details: 20 μM, 48 hours
Description: FIG. 37. LOX inhibitors, 6232, 6403 and 6415, reduced the migration capacity of the TNBC cell lines. RTCA-CIM plate used to measure the real-time migration of MDA-MB-231 cells upon treatment with 20 μM of 6232, 6403 and 6415 for 48 hours. (* p<0.05; ** p<0.01)
RTCA CIM Plate was used to assess the migration capacity of the cells upon LOX inhibitor treatment according to manufacturer's instructions. Briefly, 160 μl of 10% FBS containing media was added into each bottom chamber/50 μl of FBS free media into upper chamber and incubated 1 hour at 37° C. After the background measurement, 5×10^4 cells were seeded in FBS-free media into upper chamber in the presence of LOX inhibitors or vehicle. After the 30 min incubation at RT, real time cell migration was recorded for 48 hours.

[4] = system: cellular LOX activity, Mia-Paca-2; assay: Cell-based LOX activity in pancreatic cancer cell line; set-up: species or system human
Description: (§2) FIG. 39. Inhibition of cellular LOX activity in pancreatic and kidney cancer cell lines. Inhibition of cellular LOX activity upon the treatment with BAPN, 6232, 6403 and 6415 in kidney cell line Caki-1 (A) and pancreatic cancer cell lines Mia-Paca-2 (B) and PANC1 (C).
as §1

[5] = system: cellular LOX activity, PANC1; assay: as above; set-up: species or system human
Description: as §2, §1

[6] = target: T2, MAO-A (Homo sapiens, UniProt P21397); assay: MAO-GLO assay; format: biochemical; details: cell-free enzymatic activity assay
T2 construct: purchased Active Motif, USA
T2 sequence (P21397 1-527): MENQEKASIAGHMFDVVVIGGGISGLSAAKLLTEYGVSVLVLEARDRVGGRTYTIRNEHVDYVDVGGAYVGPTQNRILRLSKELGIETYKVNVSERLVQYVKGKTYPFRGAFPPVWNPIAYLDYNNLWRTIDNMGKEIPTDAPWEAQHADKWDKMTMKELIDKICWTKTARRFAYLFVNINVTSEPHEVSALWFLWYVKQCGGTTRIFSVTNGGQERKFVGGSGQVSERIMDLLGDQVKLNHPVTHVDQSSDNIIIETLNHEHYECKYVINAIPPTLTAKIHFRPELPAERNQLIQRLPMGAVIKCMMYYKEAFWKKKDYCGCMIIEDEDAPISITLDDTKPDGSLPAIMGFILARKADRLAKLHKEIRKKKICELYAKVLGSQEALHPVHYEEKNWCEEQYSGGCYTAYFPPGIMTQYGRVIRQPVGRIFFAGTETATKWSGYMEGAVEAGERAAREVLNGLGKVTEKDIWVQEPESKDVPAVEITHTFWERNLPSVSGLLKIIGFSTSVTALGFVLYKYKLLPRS
Description: (§3) MAO-GLO assay (Promega, USA) was used to measure the MAO-A and MAO-B activity upon LOX inhibitor treatment according to the manufacturer's instructions. For the enzyme activity, substrate was used at a concentration of 160 μM and 16 μM for MAO-A and MAO-B, respectively. MAO-A and MAO-B enzymes (Active Motif, USA) were used in 0.2 μg/per well. Reaction mix, enzymes, and drugs (30, 10, 3, 1, 0.3, and 0.1 nM) were mixed and incubated for 3 hours at RT. Then, 50 μl of luciferin was added into wells and incubated for 20 min at RT. Luciferase signals were measured by using a multimode reader.

[7] = target: T3, MAO-B (Homo sapiens, UniProt P27338); assay: MAO-GLO assay; format: biochemical; details: cell-free enzymatic activity assay
T3 construct: purchased Active Motif, USA
T3 sequence (P27338 1-520): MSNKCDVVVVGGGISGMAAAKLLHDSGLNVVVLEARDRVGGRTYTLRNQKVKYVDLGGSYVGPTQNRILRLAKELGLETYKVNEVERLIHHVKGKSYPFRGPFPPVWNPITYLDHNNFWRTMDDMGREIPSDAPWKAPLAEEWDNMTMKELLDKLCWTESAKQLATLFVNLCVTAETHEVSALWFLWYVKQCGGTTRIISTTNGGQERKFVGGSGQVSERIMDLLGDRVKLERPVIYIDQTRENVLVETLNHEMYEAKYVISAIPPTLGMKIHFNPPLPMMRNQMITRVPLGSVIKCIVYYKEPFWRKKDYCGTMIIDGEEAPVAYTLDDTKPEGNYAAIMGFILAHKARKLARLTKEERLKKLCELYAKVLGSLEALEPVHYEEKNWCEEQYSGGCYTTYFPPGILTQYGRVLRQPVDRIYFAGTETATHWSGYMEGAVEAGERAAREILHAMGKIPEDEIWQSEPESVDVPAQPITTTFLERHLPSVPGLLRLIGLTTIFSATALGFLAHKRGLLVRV
Description: as §3

[8] = read-out: cellular LOX activity

SMILES	cellular lysyl oxidase inhibition compared to BAPN [1]	IC50 ([1]; read-out: IC50 for cellular lysyl oxidase inhibition)	IC50 [1, 8]	inhibition of recombinant LOX [2]	selectivity LOX versus LOXL2 / LOX family [2]	migration capacity [3]	cellular LOX activity [4]	cellular LOX activity [5]	MAO-A activity inhibition [6]	MAO-B activity inhibition [7]	inhibition of recombinant LOX activity ([2]; 5 and 10 uM)	selectivity LOX versus LOXL2 / LOX family ([2]; listed as 4-((2′-amino-4′-methyl-[4,5′-bithiazol]-2-yl)(methyl)amino)phenol)
CC(=O)Nc1ccc(Nc2nc(-c3sc(N)nc3C)cs2)cc1 [compound 6403, N-[4-[[4-(2-amino-4-methyl-thiazol-5-yl)thiazol-2-yl]amino]phenyl]acetamide]	more potent	1.3 µM	1.3 µM	inhibits LOX recombinant protein	more potent and selective inhibitor against LOX compared to LOXL2	inhibited the migration capacity	inhibited cellular LOX activity	inhibited cellular LOX activity	did not inhibit	did not inhibit	–	–
Cc1nc(N)sc1-c1csc(N(C)c2ccc(O)cc2)n1 [compound 6415, 4-[[4-(2-amino-4-methyl-thiazol-5-yl)thiazol-2-yl]-methyl-amino]phenol]	more potent	–	3.5 µM	inhibits both LOX and LOXL2 recombinant proteins	more like a LOX/LOXL2 inhibitor	inhibited the migration capacity	inhibited cellular LOX activity	inhibited cellular LOX activity	did not inhibit	did not inhibit	inhibited the activity of LOX and LOXL2 recombinant proteins	non-selective inhibitor of the LOX family of enzymes
Cc1nc(N)sc1-c1csc(Nc2ccc([N+](=O)[O-])cc2)n1 [compound 6232, 4-methyl-5-[2-(4-nitroanilino)thiazol-4-yl]thiazol-2-amine]	more potent	–	–	strongly inhibit	–	inhibited the migration capacity	inhibited cellular LOX activity	inhibited cellular LOX activity	did not inhibit	did not inhibit	–	–
